The record followed here is patent publication US7868135B2, “Compositions of lipopeptide antibiotic derivatives and methods of use thereof” (priority 2003, dated 2011).

Assay [1] concerns E. faecalis EFS0040 (clinical isolate). Description: Intraperitoneal murine model of protection against infection (ED50, Table 21). In kind it is in vivo, Enterococcus faecalis. The conditions noted are these: Enterococcus faecalis, read-out: ED50 in Mice, E. faecalis (EFS0040). An excerpt:
(§1) A variety of in vivo models may be used to assess the antimicrobial properties of lipopeptide derivative compounds of this disclosure. For example, antimicrobial compounds of the instant disclosure may be tested for efficacy by measuring a compound's ability to protect a mouse against a microbial infection, such as an infection or disease caused by or related to Gram-positive bacteria, including Staphylococcus aureus, Streptococcus pneumoniae, and Enterococcus faecalis. […] A certain period after infection, mice are then individually treated, for example intravenously (i.v.), with a lipopeptide derivative of this disclosure.
(§2) Antimicrobial lipopeptide derivatives of the instant invention were tested for antimicrobial activity against Gram-positive bacteria in an intraperitoneal (i.p.) murine model (i.e., bacteria were injected i.p. and lipopeptide compounds were administered intravenously (i.v.)). Mice were infected with Staphylococcus aureus, Streptococcus pneumoniae, or Enterococcus faecalis, which were prepared as follows: S. aureus Smith (SAU0017, ATCC 19636) were grown in culture overnight on trypticase soy broth, harvested and then resuspended in fresh media containing 5% mucin (Sigma Chemical Co.); S. pneumoniae (SPN 0032, ATCC 10813) were grown overnight on blood agar plates and re-suspended in 0.9% sterile saline; and E. faecalis EFS0040 (clinical isolate) were grown overnight in culture on blood heart infusion broth, washed and resuspended in 0.9% saline and mixed with equal volume of sterile fecal rat extract. Swiss CD1 mice were each infected i.p. with bacteria at the following doses: S. aureus at 10^6 CFU/mouse; S. pneumoniae at 10^2 CFU/mouse; or E. faecalis at 10^7.5 CFU/mouse. […] The ED50 for each compound was calculated using the method of Reed and Meunch (Am. J. Hyg. 27: 493, 1938).

Assay [2] deals with Staphylococcus aureus (SAU0017). Description: Kill curve (bactericidal activity). In kind it is cell-based. The conditions noted are these: FIG. 5A. The protocol:
(§3) Another measure of the antimicrobial properties of the lipopeptide derivative compounds of this disclosure includes kill curve measurements. Kill curve experiments generally involve exposure of microorganisms to varying concentrations (e.g., multiples of a compound's MIC) of a test compound. The microorganisms may be in culture at log phase of growth or may be in a particular host tissue (e.g., lung) for up to 24 hours before exposure to a test compound. At selected time points, a sample of each culture or tissue can be analyzed for a titre of viable microorganisms, which is generally gauged against the time required for a compound to inhibit growth or kill bacteria.
(§4) Kill curve experiments were performed with both Staphylococcus aureus (SAU0017) and Enterococcus faecalis (EFS0004) organisms grown to log phase, which were suspended in cation-adjusted Mueller-Hinton broth with additional 0.625 mM Ca^+2 to a concentration of 10^6 CFU/mL. The cultures were then exposed to varying concentrations (i.e., multiples of the MIC) of a lipopeptide derivative and incubated at about 37° C. At selected time points from about 0 hours to about 24 hours, a sample of each culture was analyzed for a titre of viable organisms (CFU/ml), which was compared against the time required for each compound to kill bacteria.

For assay [3], the system named is Enterococcus faecalis (EFS0004). Briefly: Kill curve (bactericidal activity). In kind it is cell-based. Particulars: FIG. 4A. The protocol: as §3, §4
The test system of assay [4] is S. aureus Smith (SAU0017, ATCC 19636). Briefly: Intraperitoneal murine model of protection against infection (ED50, Table 21). In kind it is in vivo, Staphylococcus aureus. Particulars: Staphylococcus aureus, ATCC19636, read-out: ED50 in Mice, S. aureus (SAU0017).
In assay [5] the test system is Staphylococcus aureus (SAU0017). Description: Thigh infection model in neutropenic mice. In kind it is in vivo. Particulars: Staphylococcus aureus, iv. The protocol:
(§5) Other exemplary in vivo models of infection that may be used to assess, for example, the efficacy of an antimicrobial lipopeptide of the instant disclosure include the following: (A) a mouse (murine) model of lung infection (pneumonia) wherein the bacterial infection is administered intranasally (i.n.); (B) a murine thigh muscle model wherein the bacterial infection is administered intramuscularly (i.m.) in normal or neutropenic (immunocompromised) mice; and (C) a combination murine thigh muscle model (i.m. infection)/lung (i.n.) infection.

The subject of assay [6] is S. pneumoniae (SPN 0032, ATCC 10813). Briefly: Intraperitoneal murine model of protection against infection (ED50, Table 21). In kind it is in vivo, Streptococcus pneumoniae. The conditions noted are these: Streptococcus pneumoniae, ATCC10813, read-out: ED50 in Mice, S. pneumoniae (SPN0032).
From the text: as §1, §2

Assay [7] relates to Streptococcus pneumoniae (SPN032, ATCC 1081). Briefly: Intranasal murine lung infection model. In kind it is in vivo. The conditions noted are these: Streptococcus pneumoniae, ATCC1081, iv. On the procedure: as §5
Antimicrobial lipopeptide derivatives of the instant invention were tested for antimicrobial activity against Gram-positive bacteria in an intranasal (i.n.) murine lung infection model (i.e., bacteria were innoculated i.n. and lipopeptide compounds were administered i.v.). Streptococcus pneumoniae (SPN032, ATCC 1081) were grown on 5% sheep blood agar plates for 24 h at 37° C., harvested and then resuspended in 0.9% saline. A group of eight Swiss CD1 mice were sedated with 2% isoflurane, and each was infected i.n. dropwise to the nares with 50 μl of the prepared bacterial inoculum (i.e., a dose of about 10^6 CFU/mouse). […] The ED50 (mg/kg) for each compound was calculated using the method of Reed and Meunch (Am. J. Hyg. 27: 493, 1938).

By ED50 is commonly meant the dose that gives a 50% effect, or the effect in half of the subjects.

In the case of `CN[C@H](CC(C)C)C(=O)N[C@H]1C(=O)N[C@@H](CC(N)=O)C(=O)N[C@H]2C(=O)N[C@H]3C(=O)N[C@H](C(=O)N[C@H](C(=O)O)c4cc(O)cc(O)c4-c4cc3ccc4O)[C@H](O)c3ccc(c(Cl)c3)Oc3cc2cc(c3O[C@@H]2O[C@H](CO)[C@@H](O)[C@H](O)[C@H]2O[C@H]2C[C@](C)(N)[C@H](O)[C@H](C)O2)Oc2ccc(cc2Cl)[C@H]1O` [Vancomycin, reference compound], the ED50 in assay [1] was 2 mg/kg; in assay [4], 0.9 to 2.4 mg/kg; in assay [5] it was 0.9 to 1.6 mg/kg; in assay [6], 1.75 mg/kg; in assay [7], 3 to 4.3 mg/kg. The “bactericidal or bacteriostatic in kill curve” value in assay [2] and in assay [3] was “bacteriostatic” throughout.
